Test results: patent US20260184663A1, “INDENE COMPOUNDS, PHARMACEUTICAL COMPOSITIONS THEREOF, AND THEIR THERAPEUTIC APPLICATIONS” (NucMito Pharmaceuticals co. Ltd., priority 2022, published 2026)

Columns and labels:
Assay type in all cases: cell-based
[1] = test system: alpha-smooth muscle actin (α-SMA); assay: Inhibition of TGF-β induced expression of alpha-smooth muscle actin (α-SMA) in CFSC cells (western blot); settings: compound at 10 μM, TGF-β (10 ng/mL), 24 hours, band intensity vs TGF-β only
Experimental: The ability of a compound to inhabit the TGF-β induced expression of alpha-smooth muscle actin (α-SMA) was evaluated in CCl4-treated fat storing (CFSC) cells. α-SMA is considered as a reliable marker of hepatic stellate cell activation and a key biomarker for liver fibrosis.
CFSC cells maintained in a DMEM medium supplemented with 10% fetal bovine serum were seeded to 12-well culture dishes and grown to a confluence of 60-70% the next day. Culture was changed to a serum-free DMEM medium, and the cells were treated with a compound at 10 μM in the presence of TGF-β (10 ng/mL). The cells were incubated for another 24 hours. All culture was maintained at 37° C. in 5% carbon dioxide.
An NP-40 lysate solution (50 mM Tris (pH 7.4), 150 mM NaCl, 1% NP-40) with EDTA free cocktail added was used to lyse the cells on ice for 30 min. The lysate was collected and centrifuged at 4° C. for 10 min at 12,000 rpm. The pellet was discarded and the supernatant was transferred to a new tube. Cell lysates were loaded with 5× loading buffer and boiled for 10 min, resolved by 10% SDS-polyacrylamide gel electrophoresis (SDS-PAGE), and transferred to PVDF membrane. The membrane was blocked with 5% skim milk in Tris-buffered saline and TWEEN® 20 (TBST; 10 mM Tris-HCl (pH 8.0), 150 mM NaCl, 0.1% TWEEN® 20) for 1 h at room temperature and then incubated with α-SMA and β-actin antibodies overnight at 4° C. After washing twice with TBST, the membrane was probed with a horseradish […] anti-immunoglobulin (1:5000 dilution) for 1 h at room temperature. After two subsequent rinses in TBST, immunoreactive products were reacted with ECL and visualized by a UVP CHEMSTUDIO™ imaging system. The western blotting bands are quantitated using an ImageJ software. The percentage of inhibition was obtained by calculating the percentage decrease in the band intensity compared to the one treated with TGF-β only.
The results are summarized in Table 1, where A represents a value no less of 80% inhibition, B represents a value less than […] but no less than […], C represents a value less than 50% but no less than 30% inhibition, and D represents a value less than 30% inhibition with a compound at 10 μM.

[2] = test system: MDA-MB-231 (breast cancer); assay: Antiproliferative activity (CCK-8 cell viability), MDA-MB-231; settings: Homo sapiens, 72 h, read-out: Antiproliferative activity in cancerous cells, MDA-MB-231 (inhibition of cell growth); for inhibition at 3.3 µM: Compound concentration: 3.3 μM; for inhibition at 10 µM: Compound concentration: 10 μM
How it was run: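 In this CCK-8 viability assay, MDA-MB-231 cells maintained in Dulbecco's modified Eagle's medium containing 10% fetal bovine serum were placed in 96-well plates (2,000-5,000 cells/well) and treated with compound for 72 h at 37° C. A 4 h incubation with 10 μL CCK-8 followed, plates were read at 450 nm, and viability was expressed against DMSO vehicle wells across replicates.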

HepG2 (liver cancer) = assay: Antiproliferative activity (CCK-8 cell viability), HepG2; settings: Homo sapiens, 72 h; for inhibition at 3.3 µM: Compound concentration: 3.3 μM; for inhibition at 3.3 µM / inhibition at 10 µM: read-out: Antiproliferative activity in cancerous cells, HepG2 (inhibition of cell growth); for inhibition at 10 µM: Compound concentration: 10 μM
How it was run: (§1)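 Cells were seeded at 2,000-5,000/well (HeLa in MEM, HepG2 and SW480 in DMEM, A549 in F-12K, all with 10% FBS) and treated with compound at 3.3, 10 or 30 μM for 72 h at 37° C. CCK-8 was added for 4 h, absorbance was read at 450 nm, and viability was expressed relative to DMSO-treated wells.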

SW480 (colon cancer) = assay: Antiproliferative activity (CCK-8 cell viability), SW480; settings: Homo sapiens, 72 h, read-out: Antiproliferative activity in cancerous cells, SW480 (inhibition of cell growth); for inhibition at 3.3 µM: Compound concentration: 3.3 μM; for inhibition at 10 µM: Compound concentration: 10 μM
How it was run: as §1

[3] = test system: B16F10 (malignant melanoma); assay: Antiproliferative activity (CCK-8 cell viability), B16F10; settings: Mus musculus, 72 h, read-out: Antiproliferative activity in cancerous cells, B16F10 (inhibition of cell growth); for inhibition at 3.3 µM: B16-F10, Compound concentration: 3.3 μM; for inhibition at 10 µM: B16-F10, Compound concentration: 10 μM
How it was run: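 Attached B16F10 cells in 96-well plates were incubated with compound at 37° C for 72 h, followed by 10 μL CCK-8 reagent per well and a further 4 h incubation. A multi-well plate reader measured absorbance at 450 nm. Percent viability across replicates was calculated against DMSO vehicle-treated cells.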

[4] = test system: A431 (epidermoid carcinoma); assay: Antiproliferative activity (CCK-8 cell viability), A431; settings: Homo sapiens, 72 h, read-out: Antiproliferative activity in cancerous cells, A431 (inhibition of cell growth); for inhibition at 3.3 µM: A-431, Compound concentration: 3.3 μM; for inhibition at 10 µM: A-431, Compound concentration: 10 μM
How it was run: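 Cell viability of compound-treated A431 cells was measured with a Cell Counting Kit-8. Each well received 10 μL of CCK-8 after 72 h of compound exposure, followed by 4 h incubation at 37° C. and a 450 nm plate-reader measurement. Percent viability was calculated relative to DMSO controls across replicates.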

[5] = test system: A549 (lung adenocarcinoma); assay: Antiproliferative activity (CCK-8 cell viability), A549; settings: Homo sapiens, 72 h, read-out: Antiproliferative activity in cancerous cells, A549 (inhibition of cell growth); for inhibition at 3.3 µM: Compound concentration: 3.3 μM; for inhibition at 10 µM: Compound concentration: 10 μM
How it was run: as §1

HeLa (cervical cancer) = assay: Antiproliferative activity (CCK-8 cell viability), HeLa; settings: Homo sapiens, 72 h, read-out: Antiproliferative activity in cancerous cells, HELA (inhibition of cell growth); for inhibition at 3.3 µM: Compound concentration: 3.3 μM; for inhibition at 10 µM: Compound concentration: 10 μM
How it was run: as §1

CCC1=C(CC(=O)O)c2cc(F)ccc2/C1=C\c1ccc(COc2ccccc2)cc1 [A2, (Z)-2-(2-Ethyl-5-fluoro-1-(4-(phenoxymethyl)benzylidene)-1H-inden-3-yl)acetic acid]
≥ 50%: inhibition at 3.3 µM [2] | inhibition at 10 µM [2] | inhibition at 10 µM (HepG2 (liver cancer)) | inhibition at 10 µM [3] | inhibition at 10 µM [5] | inhibition at 10 µM (HeLa (cervical cancer))
> 80%: inhibition at 10 µM [1]
30 to 50%: inhibition at 3.3 µM (HepG2 (liver cancer)) | inhibition at 3.3 µM [3] | inhibition at 10 µM [4] | inhibition at 3.3 µM [5] | inhibition at 3.3 µM (HeLa (cervical cancer))
< 30%: inhibition at 3.3 µM (SW480 (colon cancer)) | inhibition at 10 µM (SW480 (colon cancer)) | inhibition at 3.3 µM [4]

O=C(O)CC1=C(CC2CCCC2)/C(=C/c2ccc(COc3ccccc3)cc2)c2ccc(F)cc21 [A3, (Z)-2-(2-(Cyclopentylmethyl)-5-fluoro-1-(4-(phenoxymethyl)benzylidene)-1H-inden-3-yl)acetic acid]
> 80%: inhibition at 10 µM [1]
≥ 50%: inhibition at 3.3 µM [2] | inhibition at 10 µM [2] | inhibition at 10 µM (HepG2 (liver cancer)) | inhibition at 3.3 µM (SW480 (colon cancer)) | inhibition at 10 µM (SW480 (colon cancer)) | inhibition at 3.3 µM [3] | inhibition at 10 µM [3] | inhibition at 3.3 µM [4] | inhibition at 10 µM [4] | inhibition at 10 µM [5] | inhibition at 10 µM (HeLa (cervical cancer))
30 to 50%: inhibition at 3.3 µM (HepG2 (liver cancer)) | inhibition at 3.3 µM [5] | inhibition at 3.3 µM (HeLa (cervical cancer))

CCCC1=C(CC(=O)O)c2cc(F)ccc2/C1=C\c1ccc(COc2ccccc2)cc1 [A4, (Z)-2-(5-Fluoro-1-(4-(phenoxymethyl)benzylidene)-2-propyl-1H-inden-3-yl)-acetic acid]
30 to 50%: inhibition at 3.3 µM (HepG2 (liver cancer)) | inhibition at 10 µM (SW480 (colon cancer)) | inhibition at 3.3 µM [3] | inhibition at 3.3 µM [5]
50 to 80%: inhibition at 10 µM [1]
< 30%: inhibition at 3.3 µM (SW480 (colon cancer)) | inhibition at 3.3 µM [4]
≥ 50%: inhibition at 3.3 µM [2] | inhibition at 10 µM [2] | inhibition at 10 µM (HepG2 (liver cancer)) | inhibition at 10 µM [3] | inhibition at 10 µM [4] | inhibition at 10 µM [5] | inhibition at 3.3 µM (HeLa (cervical cancer)) | inhibition at 10 µM (HeLa (cervical cancer))

CCC1=C(CC(=O)O)c2cc(F)ccc2/C1=C\c1cccc(COc2ccccc2)c1 [A5, (Z)-2-(2-Ethyl-5-fluoro-1-(3-(phenoxymethyl)benzylidene)-1H-inden-3-yl)acetic acid]
> 80%: inhibition at 10 µM [1]
30 to 50%: inhibition at 3.3 µM (HepG2 (liver cancer)) | inhibition at 3.3 µM [3] | inhibition at 3.3 µM [5] | inhibition at 3.3 µM (HeLa (cervical cancer))
≥ 50%: inhibition at 3.3 µM [2] | inhibition at 10 µM [2] | inhibition at 10 µM (HepG2 (liver cancer)) | inhibition at 10 µM (SW480 (colon cancer)) | inhibition at 10 µM [3] | inhibition at 10 µM [4] | inhibition at 10 µM [5] | inhibition at 10 µM (HeLa (cervical cancer))
< 30%: inhibition at 3.3 µM (SW480 (colon cancer)) | inhibition at 3.3 µM [4]

O=C(O)CC1=C(CC2CCCC2)/C(=C/c2cccc(COc3ccccc3)c2)c2ccc(F)cc21 [A6, (Z)-2-(2-(Cyclopentylmethyl)-5-fluoro-1-(3-(phenoxymethyl)benzylidene)-1H-inden-3-yl)acetic acid]
≥ 50%: inhibition at 3.3 µM [2] | inhibition at 10 µM [2] | inhibition at 3.3 µM (HepG2 (liver cancer)) | inhibition at 10 µM (HepG2 (liver cancer)) | inhibition at 10 µM (SW480 (colon cancer)) | inhibition at 3.3 µM [3] | inhibition at 10 µM [3] | inhibition at 3.3 µM [4] | inhibition at 10 µM [4] | inhibition at 3.3 µM [5] | inhibition at 10 µM [5] | inhibition at 3.3 µM (HeLa (cervical cancer)) | inhibition at 10 µM (HeLa (cervical cancer))
> 80%: inhibition at 10 µM [1]
< 30%: inhibition at 3.3 µM (SW480 (colon cancer))

CCCC1=C(CC(=O)O)c2cc(F)ccc2/C1=C\c1cccc(COc2ccccc2)c1 [A7, (Z)-2-(5-Fluoro-1-(3-(phenoxymethyl)benzylidene)-2-propyl-1H-inden-3-yl)-acetic acid]
< 30%: inhibition at 10 µM (HepG2 (liver cancer)) | inhibition at 3.3 µM (SW480 (colon cancer)) | inhibition at 3.3 µM [4] | inhibition at 3.3 µM (HeLa (cervical cancer))
30 to 50%: inhibition at 3.3 µM [3] | inhibition at 3.3 µM [5]
≥ 50%: inhibition at 3.3 µM [2] | inhibition at 10 µM [2] | inhibition at 3.3 µM (HepG2 (liver cancer)) | inhibition at 10 µM (SW480 (colon cancer)) | inhibition at 10 µM [3] | inhibition at 10 µM [4] | inhibition at 10 µM [5] | inhibition at 10 µM (HeLa (cervical cancer))
> 80%: inhibition at 10 µM [1]

O=C(O)CC1=C/C(=C/c2cccc(COc3ccccc3)c2)c2ccc(F)cc21 [A8, (Z)-2-(5-Fluoro-1-(3-(phenoxymethyl)benzylidene)-1H-inden-3-yl)acetic acid]
≥ 50%: inhibition at 10 µM [2] | inhibition at 10 µM [3] | inhibition at 10 µM [5] | inhibition at 3.3 µM (HeLa (cervical cancer)) | inhibition at 10 µM (HeLa (cervical cancer))
< 30%: inhibition at 3.3 µM (SW480 (colon cancer)) | inhibition at 3.3 µM [4]
> 80%: inhibition at 10 µM [1]
30 to 50%: inhibition at 3.3 µM [2] | inhibition at 3.3 µM (HepG2 (liver cancer)) | inhibition at 10 µM (HepG2 (liver cancer)) | inhibition at 10 µM (SW480 (colon cancer)) | inhibition at 3.3 µM [3] | inhibition at 10 µM [4] | inhibition at 3.3 µM [5]

COc1ccc2c(c1)/C(=C\c1ccc(OCc3ccccc3)cc1)C=C2CC(=O)O [A9, (Z)-2-(1-(4-(Benzyloxy)benzylidene)-6-methoxy-1H-inden-3-yl)acetic acid]
< 30%: inhibition at 3.3 µM [2] | inhibition at 3.3 µM (HepG2 (liver cancer)) | inhibition at 10 µM (HepG2 (liver cancer)) | inhibition at 3.3 µM [3] | inhibition at 10 µM [3] | inhibition at 3.3 µM (HeLa (cervical cancer))
> 80%: inhibition at 10 µM [1]
30 to 50%: inhibition at 30 µM (HepG2 (liver cancer); Compound concentration: 30 μM, read-out: Antiproliferative activity in cancerous cells, HepG2) | inhibition at 3.3 µM (SW480 (colon cancer)) | inhibition at 3.3 µM [4] | inhibition at 3.3 µM [5] | inhibition at 10 µM (HeLa (cervical cancer))
≥ 50%: inhibition at 10 µM [2] | inhibition at 10 µM (SW480 (colon cancer)) | inhibition at 10 µM [4] | inhibition at 10 µM [5]
